Test results as given in publication PMC4951033, “Elevation of the Yields of Very Long Chain Polyunsaturated Fatty Acids via Minimal Codon Optimization of Two Key Biosynthetic Enzymes” (PLoS ONE, 2016).

Molecular target: T1, PinD6 (PinDes6, delta-6 desaturase) (Phytophthora infestans, UniProt A0A833SQW7)
T1 construct: gene GN244_ATG16356

SMILES	GC of fatty acid methyl esters from fed yeast
CC/C=C\C/C=C\C/C=C\CCCCCCCC(=O)O [ALA, α-linolenic acid]	WT-PinD6 can convert LA and ALA to GLA and SDA
CCCCC/C=C\C/C=C\CCCCCCCC(=O)O [LA]	WT-PinD6 can convert LA and ALA to GLA and SDA
